Measurements as given in paper PMC5218480 (PLoS ONE, 2017).

System: MV-4-11 cells
Assay: Gene expression microarray analysis (Affymetrix PrimeView) and GSEA
Type: cell-based, human
Set-up: RFU PODN (11730768_x_at) / Fold change /veh PODN (11730768_x_at) / RFU LINC00158 (11744669_a_at) / Fold change /veh LINC00158 (11744669_a_at) / RFU DUSP10 (11751237_a_at) / Fold change /veh DUSP10 (11751237_a_at) / RFU ID3 (11757404_x_at) / Fold change /veh ID3 (11757404_x_at) / RFU PLEKHG5 (11737974_s_at) / Fold change /veh PLEKHG5 (11737974_s_at) / RFU LRRC4B (11730491_at) / Fold change /veh LRRC4B (11730491_at) / RFU GIMAP4 (11747438_a_at) / Fold change /veh GIMAP4 (11747438_a_at) / RFU KRT8 (11758183_x_at) / Fold change /veh KRT8 (11758183_x_at) / RFU CNN1 (11734310_a_at) / Fold change /veh CNN1 (11734310_a_at) / RFU VPS37D (11726825_at) / Fold change /veh VPS37D (11726825_at) / RFU C10orf10 (11716522_x_at) / Fold change /veh C10orf10 (11716522_x_at) / RFU KIR2DL2 /// KIR2DL4 /// KIR2DL5A /// KIR2DL5B /// KIR2DS1 /// KIR2DS2 /// KIR2DS3 /// KIR2DS4 /// KIR3DL3 /// KIR3DL3 /// KIR3DS1 (11738374_at) / Fold change /veh KIR2DL2 /// KIR2DL4 /// KIR2DL5A /// KIR2DL5B /// KIR2DS1 /// KIR2DS2 /// KIR2DS3 /// KIR2DS4 /// KIR3DL3 /// KIR3DL3 /// KIR3DS1 (11738374_at) / RFU C1QL1 (11718748_at) / Fold change /veh C1QL1 (11718748_at) / RFU TMPRSS4 (11747572_a_at) / Fold change /veh TMPRSS4 (11747572_a_at) / RFU HAMP (11756126_x_at) / Fold change /veh HAMP (11756126_x_at) / RFU RNFT2 (11725882_a_at) / Fold change /veh RNFT2 (11725882_a_at) / RFU NR4A2 (11747474_a_at) / Fold change /veh NR4A2 (11747474_a_at) / RFU ABCC12 (11746883_a_at) / Fold change /veh ABCC12 (11746883_a_at) / RFU TMEM136 (11760407_x_at) / Fold change /veh TMEM136 (11760407_x_at) / RFU CLDN22 /// WWC2 (11732394_at) / Fold change /veh CLDN22 /// WWC2 (11732394_at) / RFU HLA-DPB1 (11760878_x_at) / Fold change /veh HLA-DPB1 (11760878_x_at) / RFU SPINT1 (11716480_a_at) / Fold change /veh SPINT1 (11716480_a_at) / RFU GAP43 (11754022_s_at) / Fold change /veh GAP43 (11754022_s_at) / RFU A4GNT (11735810_at) / Fold change /veh A4GNT (11735810_at) / RFU PRB3 (11715151_x_at) / Fold change /veh PRB3 (11715151_x_at) / RFU TUBB4B (11761932_at) / Fold change /veh TUBB4B (11761932_at) / RFU CAPN14 (11732068_a_at) / Fold change /veh CAPN14 (11732068_a_at) / RFU TMCC2 (11721928_a_at) / Fold change /veh TMCC2 (11721928_a_at) / RFU IRGQ (11745062_a_at) / Fold change /veh IRGQ (11745062_a_at) / RFU FAM174B (11720279_a_at) / Fold change /veh FAM174B (11720279_a_at) / RFU TMPRSS4 (11748680_a_at) / Fold change /veh TMPRSS4 (11748680_a_at) / RFU FAM212B (11763350_a_at) / Fold change /veh FAM212B (11763350_a_at) / RFU PLEKHG5 (11743358_a_at) / Fold change /veh PLEKHG5 (11743358_a_at) / RFU ZSCAN30 (11745921_a_at) / Fold change /veh ZSCAN30 (11745921_a_at) / RFU CMKLR1 (11741424_a_at) / Fold change /veh CMKLR1 (11741424_a_at) / RFU LOC101060620 /// MAPK8IP1 (11723275_at) / Fold change /veh LOC101060620 /// MAPK8IP1 (11723275_at) / RFU SPTSSB (11747773_x_at) / Fold change /veh SPTSSB (11747773_x_at) / RFU PRSS12 (11739890_at) / Fold change /veh PRSS12 (11739890_at) / RFU BIN1 (11741810_x_at) / Fold change /veh BIN1 (11741810_x_at) / RFU WNT11 (11732464_a_at) / Fold change /veh WNT11 (11732464_a_at) / RFU C10orf10 (11716521_a_at) / Fold change /veh C10orf10 (11716521_a_at) / RFU C5orf56 (11738089_at) / Fold change /veh C5orf56 (11738089_at) / RFU CYB561 (11721691_x_at) / Fold change /veh CYB561 (11721691_x_at) / RFU ANKRD19P (11752326_a_at) / Fold change /veh ANKRD19P (11752326_a_at) / RFU OR2T12 /// OR2T33 /// OR2T8 (11738714_s_at) / Fold change /veh OR2T12 /// OR2T33 /// OR2T8 (11738714_s_at) / RFU VCAN (11748164_a_at) / Fold change /veh VCAN (11748164_a_at) / RFU JSRP1 (11732532_at) / Fold change /veh JSRP1 (11732532_at) / RFU KRTAP10-11 (11738290_x_at) / Fold change /veh KRTAP10-11 (11738290_x_at) / RFU MYO3A (11730013_a_at) / Fold change /veh MYO3A (11730013_a_at) / RFU EBF3 (11725865_a_at) / Fold change /veh EBF3 (11725865_a_at) / RFU CAMK2N1 (11719241_x_at) / Fold change /veh CAMK2N1 (11719241_x_at) / RFU C5orf56 (11738088_a_at) / Fold change /veh C5orf56 (11738088_a_at) / RFU OLFML3 (11715873_a_at) / Fold change /veh OLFML3 (11715873_a_at) / RFU LOC100653217 /// NTM (11731650_a_at) / Fold change /veh LOC100653217 /// NTM (11731650_a_at) / RFU MAPK11 (11762145_a_at) / Fold change /veh MAPK11 (11762145_a_at) / RFU FIZ1 (11724087_x_at) / Fold change /veh FIZ1 (11724087_x_at) / RFU OASL (11726364_x_at) / Fold change /veh OASL (11726364_x_at) / RFU SOX15 (11748057_x_at) / Fold change /veh SOX15 (11748057_x_at) / RFU CD79A (11719716_a_at) / Fold change /veh CD79A (11719716_a_at) / RFU HIST1H1D (11736915_at) / Fold change /veh HIST1H1D (11736915_at) / RFU CASKIN2 (11723855_a_at) / Fold change /veh CASKIN2 (11723855_a_at) / RFU LOC730098 (11760151_x_at) / Fold change /veh LOC730098 (11760151_x_at) / RFU OR4N2 (11742367_at) / Fold change /veh OR4N2 (11742367_at) / RFU PRRT2 (11749266_a_at) / Fold change /veh PRRT2 (11749266_a_at) / RFU SNX32 (11753110_a_at) / Fold change /veh SNX32 (11753110_a_at) / RFU CDHR5 (11726645_a_at) / Fold change /veh CDHR5 (11726645_a_at) / RFU RCAN1 (11760418_a_at) / Fold change /veh RCAN1 (11760418_a_at) / RFU FAM167A (11723789_a_at) / Fold change /veh FAM167A (11723789_a_at) / RFU FAM26E (11764081_at) / Fold change /veh FAM26E (11764081_at) / RFU ISYNA1 (11749810_s_at) / Fold change /veh ISYNA1 (11749810_s_at) / RFU ACY1 (11761880_at) / Fold change /veh ACY1 (11761880_at) / RFU 11764098_at / Fold change /veh 11764098_at / RFU SAMD14 (11745864_x_at) / Fold change /veh SAMD14 (11745864_x_at) / RFU NPB (11741838_a_at) / Fold change /veh NPB (11741838_a_at) / RFU TMPRSS6 (11731388_a_at) / Fold change /veh TMPRSS6 (11731388_a_at) / RFU KRTAP10-2 (11738614_at) / Fold change /veh KRTAP10-2 (11738614_at) / RFU ARHGAP8 /// PRR5-ARHGAP8 (11727945_x_at) / Fold change /veh ARHGAP8 /// PRR5-ARHGAP8 (11727945_x_at) / RFU KRTAP5-7 /// NADSYN1 (11734609_at) / Fold change /veh KRTAP5-7 /// NADSYN1 (11734609_at) / RFU RASL12 (11751679_a_at) / Fold change /veh RASL12 (11751679_a_at) / RFU CDKN2B (11736163_a_at) / Fold change /veh CDKN2B (11736163_a_at) / RFU PRF1 (11729649_at) / Fold change /veh PRF1 (11729649_at) / RFU, ZNF638 /// ZNF638-IT1 / Fold change vs veh, ZNF638 /// ZNF638-IT1 / RFU, PANK3 / Fold change vs veh, PANK3 / RFU, SH3YL1 / Fold change vs veh, SH3YL1 / RFU, ZEB2 / Fold change vs veh, ZEB2 / RFU, NRIP1 / Fold change vs veh, NRIP1 / RFU, PTTG1IP / Fold change vs veh, PTTG1IP / RFU, CAPN2 / Fold change vs veh, CAPN2 / RFU, MED14 / Fold change vs veh, MED14 / RFU, SNORA58 / Fold change vs veh, SNORA58 / RFU, C1orf63 / Fold change vs veh, C1orf63 / RFU, LRRFIP1 / Fold change vs veh, LRRFIP1 / RFU, NDUFAF7 / Fold change vs veh, NDUFAF7 / RFU, SLC12A2 / Fold change vs veh, SLC12A2 / RFU, IBTK / Fold change vs veh, IBTK / RFU, ESF1 / Fold change vs veh, ESF1 / Fold change vs veh, TMEM50B / RFU, TAOK1 / Fold change vs veh, TAOK1 / RFU, ACBD3 / Fold change vs veh, ACBD3 / RFU, TMA16 / Fold change vs veh, TMA16 / RFU, RWDD3 / Fold change vs veh, RWDD3 / RFU, BCAT1 / Fold change vs veh, BCAT1 / RFU, EDEM3 / Fold change vs veh, EDEM3 / RFU, TMEM33 / Fold change vs veh, TMEM33 / RFU, WDR75 / Fold change vs veh, WDR75 / RFU, AHCTF1 / Fold change vs veh, AHCTF1 / RFU, TFRC / Fold change vs veh, TFRC / RFU, ZDHHC17 / Fold change vs veh, ZDHHC17 / RFU, NOM1 / Fold change vs veh, NOM1 / RFU, ARL8B / Fold change vs veh, ARL8B / RFU, ZBTB11 / Fold change vs veh, ZBTB11 / RFU, TAMM41 / Fold change vs veh, TAMM41 / RFU, KIAA1704 /// LOC100996395 / Fold change vs veh, KIAA1704 /// LOC100996395 / RFU, ING1 / Fold change vs veh, ING1 / RFU, TRMT61B / Fold change vs veh, TRMT61B / RFU, FUBP3 / Fold change vs veh, FUBP3 / RFU, TP53 / Fold change vs veh, TP53 / RFU, TNKS2 / Fold change vs veh, TNKS2 / RFU, ZFP14 / Fold change vs veh, ZFP14 / RFU, ACTR2 / Fold change vs veh, ACTR2 / RFU, PPP3R1 / Fold change vs veh, PPP3R1 / RFU, PIK3R1 / Fold change vs veh, PIK3R1 / RFU, HNRNPA1 / Fold change vs veh, HNRNPA1 / RFU, RNF170 / Fold change vs veh, RNF170 / RFU, ZNF28 / Fold change vs veh, ZNF28 / RFU, RNGTT / Fold change vs veh, RNGTT / RFU, OGT / Fold change vs veh, OGT / RFU, BRD1 / Fold change vs veh, BRD1 / RFU, MARS / Fold change vs veh, MARS / RFU, ZNF655 / Fold change vs veh, ZNF655 / RFU, FAHD1 / Fold change vs veh, FAHD1 / RFU, BDP1 / Fold change vs veh, BDP1 / RFU, LRRCC1 / Fold change vs veh, LRRCC1 / RFU, ARID1A / Fold change vs veh, ARID1A / RFU, ZNF146 / Fold change vs veh, ZNF146 / RFU, ZNF330 / Fold change vs veh, ZNF330 / RFU, GPN3 / Fold change vs veh, GPN3 / RFU, C9orf123 / Fold change vs veh, C9orf123 / RFU, N4BP2L2 / Fold change vs veh, N4BP2L2 / RFU, ARFIP1 / Fold change vs veh, ARFIP1 / RFU, FAM179B / Fold change vs veh, FAM179B / RFU, BCL10 / Fold change vs veh, BCL10 / RFU, UHRF1BP1L / Fold change vs veh, UHRF1BP1L / RFU, BET1 / Fold change vs veh, BET1 / RFU, CNOT2 / Fold change vs veh, CNOT2 / RFU, ZNF268 / Fold change vs veh, ZNF268 / Fold change vs veh, ZNF507 / RFU, DGCR2 / Fold change vs veh, DGCR2 / RFU, WDSUB1 / Fold change vs veh, WDSUB1 / Fold change vs veh, HSP90B1 /// MIR3652 / RFU, ADSS / Fold change vs veh, ADSS / RFU, GK / Fold change vs veh, GK / RFU, ZNF148 / Fold change vs veh, ZNF148 / RFU, TAF9 / Fold change vs veh, TAF9 / RFU, SLC1A5 / Fold change vs veh, SLC1A5 / RFU, SLMO2 / Fold change vs veh, SLMO2 / RFU, ABCC4 / Fold change vs veh, ABCC4 / RFU, LOC101060439 /// RAP1B / Fold change vs veh, LOC101060439 /// RAP1B / RFU, RFX7 / Fold change vs veh, RFX7 / RFU, GTPBP10 / Fold change vs veh, GTPBP10 / RFU, CNEP1R1 / Fold change vs veh, CNEP1R1 / RFU, BIVM-ERCC5 /// ERCC5 / Fold change vs veh, BIVM-ERCC5 /// ERCC5 / RFU, ILF3 / Fold change vs veh, ILF3 / RFU 11762660_at / Fold change /veh 11762660_at / RFU VCAN (11757783_s_at) / Fold change /veh VCAN (11757783_s_at) / RFU DDX43 (11728927_at) / Fold change /veh DDX43 (11728927_at) / RFU KRT8 (11758188_x_at) / Fold change /veh KRT8 (11758188_x_at) / RFU NKD1 (11759106_at) / Fold change /veh NKD1 (11759106_at) / RFU SRD5A1 (11742802_a_at) / Fold change /veh SRD5A1 (11742802_a_at) / RFU TPSAB1 /// TPSB2 (11721975_s_at) / Fold change /veh TPSAB1 /// TPSB2 (11721975_s_at) / RFU GSTM3 (11746129_a_at) / Fold change /veh GSTM3 (11746129_a_at) / RFU IL23R (11737362_x_at) / Fold change /veh IL23R (11737362_x_at) / RFU TMEM51 (11727254_a_at) / Fold change /veh TMEM51 (11727254_a_at) / RFU PIWIL2 (11732686_x_at) / Fold change /veh PIWIL2 (11732686_x_at) / RFU ORM1 (11744905_x_at) / Fold change /veh ORM1 (11744905_x_at) / RFU CCDC152 (11743942_at) / Fold change /veh CCDC152 (11743942_at) / RFU ECM1 (11717891_a_at) / Fold change /veh ECM1 (11717891_a_at) / RFU IL23R (11748794_a_at) / Fold change /veh IL23R (11748794_a_at) / RFU TNFAIP8L3 (11732012_x_at) / Fold change /veh TNFAIP8L3 (11732012_x_at) / RFU MBOAT4 (11741988_at) / Fold change /veh MBOAT4 (11741988_at) / RFU 11764193_at / Fold change /veh 11764193_at / RFU TMEM53 (11763286_at) / Fold change /veh TMEM53 (11763286_at) / RFU MAGEB2 (11727129_at) / Fold change /veh MAGEB2 (11727129_at) / RFU TMEM200A (11744735_a_at) / Fold change /veh TMEM200A (11744735_a_at) / RFU CCDC152 (11751479_a_at) / Fold change /veh CCDC152 (11751479_a_at) / RFU FAM211A (11726209_a_at) / Fold change /veh FAM211A (11726209_a_at) / RFU RGS16 (11746705_a_at) / Fold change /veh RGS16 (11746705_a_at) / RFU VCAN (11755009_s_at) / Fold change /veh VCAN (11755009_s_at) / RFU RHOB (11743442_s_at) / Fold change /veh RHOB (11743442_s_at) / RFU RGS16 (11720943_a_at) / Fold change /veh RGS16 (11720943_a_at) / RFU RGS16 (11720944_at) / Fold change /veh RGS16 (11720944_at) / RFU, VPS4B / Fold change vs veh, VPS4B / RFU, CREB1 / Fold change vs veh, CREB1 / RFU, DNAJC13 / Fold change vs veh, DNAJC13 / RFU, GNAQ / Fold change vs veh, GNAQ / RFU, CDK5R1 / Fold change vs veh, CDK5R1 / RFU, ZRANB3 / Fold change vs veh, ZRANB3 / RFU, CUL4A / Fold change vs veh, CUL4A / RFU, CCNY / Fold change vs veh, CCNY / RFU, UFL1 / Fold change vs veh, UFL1 / RFU, COG3 / Fold change vs veh, COG3 / RFU, DIAPH2 / Fold change vs veh, DIAPH2 / RFU, SKA2 / Fold change vs veh, SKA2 / RFU, AFF3 / Fold change vs veh, AFF3 / RFU, LMF1 / Fold change vs veh, LMF1 / RFU, IPO11 / Fold change vs veh, IPO11 / RFU, DFFB / Fold change vs veh, DFFB / RFU, FOXP1 / Fold change vs veh, FOXP1 / RFU, CARD8 / Fold change vs veh, CARD8 / RFU, STRN3 / Fold change vs veh, STRN3 / RFU, ADK / Fold change vs veh, ADK / RFU, RASSF2 / Fold change vs veh, RASSF2 / RFU, WIPF1 / Fold change vs veh, WIPF1 / RFU, LARP1B / Fold change vs veh, LARP1B / RFU, RASA1 / Fold change vs veh, RASA1 / RFU, RB1 / Fold change vs veh, RB1 / RFU, PPFIA1 / Fold change vs veh, PPFIA1 / RFU, MAT2A / Fold change vs veh, MAT2A / RFU, CCT5 / Fold change vs veh, CCT5 / RFU, WDR92 / Fold change vs veh, WDR92 / RFU, CUX1 / Fold change vs veh, CUX1 / RFU, TTC7A / Fold change vs veh, TTC7A / RFU, TMEM135 / Fold change vs veh, TMEM135 / RFU, DEPTOR / Fold change vs veh, DEPTOR / RFU, CPM / Fold change vs veh, CPM / RFU, DNAJB6 / Fold change vs veh, DNAJB6 / RFU, CACNA2D3 / Fold change vs veh, CACNA2D3 / RFU, DTX4 / Fold change vs veh, DTX4 / RFU, TFCP2 / Fold change vs veh, TFCP2 / RFU, GMCL1 /// GMCL1P1 / Fold change vs veh, GMCL1 /// GMCL1P1 / RFU, AEBP2 / Fold change vs veh, AEBP2 / RFU, SNHG1 /// SNORD22 /// SNORD25 /// SNORD26 /// SNORD27 /// SNORD28 /// SNORD29 /// SNORD31 / Fold change vs veh, SNHG1 /// SNORD22 /// SNORD25 /// SNORD26 /// SNORD27 /// SNORD28 /// SNORD29 /// SNORD31 / Fold change (Aza/veh), C12orf56 (ProbeSet 11735607_a_at) / Fold change (ACY-1035/veh), C12orf56 (ProbeSet 11735607_a_at) / Fold change (Aza/veh), FGFR1OP (ProbeSet 11751329_s_at) / Fold change (ACY-1035/veh), FGFR1OP (ProbeSet 11751329_s_at) / Fold change (Aza/veh), VPS36 (ProbeSet 11739960_a_at) / Fold change (ACY-1035/veh), VPS36 (ProbeSet 11739960_a_at) / RFU SYPL1 (11715823_x_at) / Fold change /veh SYPL1 (11715823_x_at) / RFU IGFBP7 (11715501_s_at) / Fold change /veh IGFBP7 (11715501_s_at) / RFU REEP3 (11722064_at) / Fold change /veh REEP3 (11722064_at) / RFU IGLL1 (11728026_x_at) / Fold change /veh IGLL1 (11728026_x_at): dose or concentration left out as unconfirmed
Conditions: ProbeSet 11749477_a_at; LIST B

With Nc1ncn([C@@H]2O[C@H](CO)[C@@H](O)[C@H]2O)c(=O)n1 [azacitidine] the “Fold change vs veh, EDEM3” value was 0.89.
